Paper PMC11003488 (Journal of Enzyme Inhibition and Medicinal Chemistry, 2023)
Read-outs that look alike come from different tables or passages of the source.

Legend:
[1] = test system: HOP-92; test: NCI-60 SRB growth inhibition, one-dose and five-dose; assay type: cell-based; settings: Homo sapiens; for inhibition at 10 µM: HOP-92, read-out: percent growth inhibition
[2] = test system: A498; test: as above; assay type: cell-based; settings: Homo sapiens; for inhibition at 10 µM: A498, read-out: percent growth inhibition
[3] = test system: MCF7; test: as above; assay type: cell-based; settings: Homo sapiens; for inhibition at 10 µM: MCF7, read-out: percent growth inhibition
[4] = test system: CCRF-CEM; test: as above; assay type: cell-based; settings: Homo sapiens; for inhibition at 10 µM: read-out: percent growth inhibition
[5] = test system: HOP-62; test: as above; assay type: cell-based; settings: Homo sapiens; for inhibition at 10 µM: HOP-62, read-out: percent growth inhibition
[6] = test system: IGROV1; test: as above; assay type: cell-based; settings: Homo sapiens; for inhibition at 10 µM: IGROV-1, read-out: percent growth inhibition
[7] = test system: HT29; test: as above; assay type: cell-based; settings: Homo sapiens; for inhibition at 10 µM: HT-29, read-out: percent growth inhibition
[8] = test system: HCT-116; test: as above; assay type: cell-based; settings: Homo sapiens; for inhibition at 10 µM: HCT-116, read-out: percent growth inhibition
[9] = test system: CAKI-1; test: as above; assay type: cell-based; settings: Homo sapiens; for inhibition at 10 µM: CAKI-1, read-out: percent growth inhibition
[10] = test system: SF-539; test: as above; assay type: cell-based; settings: Homo sapiens; for inhibition at 10 µM: SF-539, read-out: percent growth inhibition
[11] = test system: HCT-15; test: as above; assay type: cell-based; settings: Homo sapiens; for inhibition at 10 µM: HCT-15, read-out: percent growth inhibition
[12] = test system: SR; test: as above; assay type: cell-based; settings: Homo sapiens; for inhibition at 10 µM: read-out: percent growth inhibition
[13] = test system: BT-549; test: as above; assay type: cell-based; settings: Homo sapiens; for inhibition at 10 µM: BT-549, read-out: percent growth inhibition
[14] = test system: NCI-H522; test: as above; assay type: cell-based; settings: Homo sapiens; for inhibition at 10 µM: NCI-H522, read-out: percent growth inhibition
[15] = test system: OVCAR-3; test: as above; assay type: cell-based; settings: Homo sapiens; for inhibition at 10 µM: OVCAR-3, read-out: percent growth inhibition
[16] = test system: DU-145; test: as above; assay type: cell-based; settings: Homo sapiens; for inhibition at 10 µM: DU-145, read-out: percent growth inhibition
[17] = test system: LOX IMVI; test: as above; assay type: cell-based; settings: Homo sapiens; for inhibition at 10 µM: read-out: percent growth inhibition
[18] = test system: NCI-H460; test: as above; assay type: cell-based; settings: Homo sapiens; for inhibition at 10 µM: NCI-H460, read-out: percent growth inhibition
[19] = test system: RXF 393; test: as above; assay type: cell-based; settings: Homo sapiens; for inhibition at 10 µM: RXF 393, read-out: percent growth inhibition
[20] = test system: A549/ATCC; test: as above; assay type: cell-based; settings: Homo sapiens; for inhibition at 10 µM: A549, read-out: percent growth inhibition
[21] = test system: ACHN; test: as above; assay type: cell-based; settings: Homo sapiens; for inhibition at 10 µM: read-out: percent growth inhibition
[22] = test system: SF-268; test: as above; assay type: cell-based; settings: Homo sapiens; for inhibition at 10 µM: SF-268, read-out: percent growth inhibition
[23] = test system: OVCAR-5; test: as above; assay type: cell-based; settings: Homo sapiens; for inhibition at 10 µM: OVCAR-5, read-out: percent growth inhibition
[24] = test system: SNB-75; test: as above; assay type: cell-based; settings: Homo sapiens
[25] = test system: HCC-2998; test: as above; assay type: cell-based; settings: Homo sapiens; for inhibition at 10 µM: HCC 2998, read-out: percent growth inhibition
[26] = test system: MALME-3M; test: as above; assay type: cell-based; settings: Homo sapiens; for inhibition at 10 µM: read-out: percent growth inhibition
[27] = test system: NCI/ADR-RES; test: as above; assay type: cell-based; settings: Homo sapiens
[28] = test system: SK-MEL-5; test: as above; assay type: cell-based; settings: Homo sapiens; for inhibition at 10 µM: SK-MEL-5, read-out: percent growth inhibition
[29] = test system: MDA-MB-435; test: as above; assay type: cell-based; settings: Homo sapiens; for inhibition at 10 µM: MDA-MB-435, read-out: percent growth inhibition
[30] = test system: SK-MEL-2; test: as above; assay type: cell-based; settings: Homo sapiens
[31] = test system: 786-0; test: as above; assay type: cell-based; settings: Homo sapiens; for inhibition at 10 µM: 786-0, read-out: percent growth inhibition
[32] = test system: K-562; test: as above; assay type: cell-based; settings: Homo sapiens; for inhibition at 10 µM: K562, read-out: percent growth inhibition
[33] = test system: NCI-H226; test: as above; assay type: cell-based; settings: Homo sapiens; for inhibition at 10 µM: NCI-H226, read-out: percent growth inhibition
[34] = test system: OVCAR-4; test: as above; assay type: cell-based; settings: Homo sapiens; for inhibition at 10 µM: OVCAR-4, read-out: percent growth inhibition
[35] = test system: UACC-62; test: as above; assay type: cell-based; settings: Homo sapiens; for inhibition at 10 µM: UACC-62, read-out: percent growth inhibition
[36] = test system: NCI-H322M; test: as above; assay type: cell-based; settings: Homo sapiens; for inhibition at 10 µM: read-out: percent growth inhibition
[37] = test system: NCI 60-cell line panel (full panel); test: NCI-60 SRB growth inhibition, full panel mean / MG-MID; assay type: cell-based, human; settings: for GI50: Homo sapiens, 60 cell; for Full panel Mean GI %: mean over NCI-60 panel, single dose 10 µM
[38] = test system: T-47D; test: NCI-60 SRB growth inhibition, one-dose and five-dose; assay type: cell-based; settings: Homo sapiens, T47D; for inhibition at 10 µM: read-out: percent growth inhibition
[39] = test system: COLO 205; test: as above; assay type: cell-based; settings: Homo sapiens; for inhibition at 10 µM: COLO 205, read-out: percent growth inhibition
[40] = test system: HS 578 T; test: as above; assay type: cell-based; settings: Homo sapiens; for inhibition at 10 µM: read-out: percent growth inhibition
[41] = test system: SNB-19; test: as above; assay type: cell-based; settings: Homo sapiens; for inhibition at 10 µM: SNB-19, read-out: percent growth inhibition
[42] = test system: SF-295; test: as above; assay type: cell-based; settings: Homo sapiens; for inhibition at 10 µM: SF-295, read-out: percent growth inhibition

## COc1ccc(CNc2cccc(C(=O)/C=C/c3ccc(NC(C)=O)cc3)c2)cc1OC [Compound 5h, (E)-N-(4–(3-(3-((3,4-dimethoxybenzyl)amino)phenyl)-3-oxoprop-1-en-1-yl)phenyl) acetamide]
[1]; HOP-92
  GI50: 4.02 µM
[1]
  inhibition at 10 µM: 65.8%
[2]; A498
  GI50: 13.7 µM
[2]
  inhibition at 10 µM: 11.5%
[3]; MCF7
  GI50: 2.54 µM
[3]
  inhibition at 10 µM: 119%
[4]
  GI50: 2.74 µM
  inhibition at 10 µM: 84.5%
[5]; HOP-62
  GI50: 7.25 µM
[5]
  inhibition at 10 µM: 62.3%
[6]; IGROV-1
  GI50: 4.54 µM
[6]
  inhibition at 10 µM: 96.8%
[7]; HT-29
  GI50: 3.46 µM
[7]
  inhibition at 10 µM: 172%
[8]; HCT-116, HCT-116 (colon cancer), five-dose assay
  GI50: 1.95 µM
[8]; HCT-116, HCT-116, five-dose screening
  GI50: 0.78 µM
[8]
  inhibition at 10 µM: 174%
[9]; CAKI-1
  GI50: 3.15 µM
[9]
  inhibition at 10 µM: 56.4%
[10]; SF-539
  GI50: 2.31 µM
[10]
  inhibition at 10 µM: 174%
[11]; HCT-15
  GI50: 1.8 µM
[11]
  inhibition at 10 µM: 125%
[12]
  GI50: 1.93 µM
  inhibition at 10 µM: 98.3%
[13]; BT-549
  GI50: 1.54 µM
[13]
  inhibition at 10 µM: 126%
[14]; NCI-H522
  GI50: 8.85 µM
[14]
  inhibition at 10 µM: 150%
[15]; OVCAR-3
  GI50: 2.28 µM
[15]
  inhibition at 10 µM: 114%
[16]; DU-145
  GI50: 4.25 µM
[16]
  inhibition at 10 µM: 75.4%
[17]
  GI50: 1.8 µM
  inhibition at 10 µM: 181%
[18]; NCI-H460
  GI50: 2.1 µM
[18]
  inhibition at 10 µM: 143%
[19]; RXF 393
  GI50: 1.87 µM
[19]
  inhibition at 10 µM: 132%
[20]; A549
  GI50: 23.6 µM
[20]
  inhibition at 10 µM: 77.3%
[21]
  GI50: 2.07 µM
  inhibition at 10 µM: 162%
[22]; SF-268
  GI50: 3.01 µM
[22]
  inhibition at 10 µM: 64%
[23]; OVCAR-5
  GI50: 4.53 µM
[23]
  inhibition at 10 µM: 84.1%
[24]; SNB-75
  GI50: 10.1 µM
[24]; SNB-75, read-out: percent growth inhibition
  inhibition at 10 µM: 62.8%
[25]; HCC 2998
  GI50: 3.3 µM
[25]
  inhibition at 10 µM: 176%
[26]
  GI50: 3.5 µM
  inhibition at 10 µM: 151%
[27]
  GI50: 2.86 µM
[28]; SK-MEL-5
  GI50: 4.13 µM
[28]
  inhibition at 10 µM: 126%
[29]; MDA-MB-435
  GI50: 2.22 µM
[29]
  inhibition at 10 µM: 133%
[30]; SK-MEL-2
  GI50: 10.6 µM
[30]; SK-MEL-2, read-out: percent growth inhibition
  inhibition at 10 µM: 53.7%
[31]; 786-0
  GI50: 1.57 µM
[31]
  inhibition at 10 µM: 155%
[32]; K562
  GI50: 2.5 µM
[32]
  inhibition at 10 µM: 92.2%
[33]; NCI-H226
  GI50: 12.4 µM
[33]
  inhibition at 10 µM: 21.2%
[34]; OVCAR-4
  GI50: 3.09 µM
[34]
  inhibition at 10 µM: 89.4%
[35]; UACC-62
  GI50: 3.9 µM
[35]
  inhibition at 10 µM: 130%
[36]
  GI50: 13.6 µM
  inhibition at 10 µM: 32%
[37]; read-out: Full panel GI50 mean
  GI50: 4.48 µM
[37]; read-out: Full panel MG-MID GI50
  GI50: 4.48 µM
[37]
  Full panel Mean GI %: 108.5%
[38]
  GI50: 5.04 µM
  inhibition at 10 µM: 104%
[39]; COLO 205
  GI50: 9.39 µM
[39]
  inhibition at 10 µM: 145%
[40]
  GI50: 3.07 µM
  inhibition at 10 µM: 99.1%
[41]; SNB-19
  GI50: 5.19 µM
[41]
  inhibition at 10 µM: 56.9%
[42]; SF-295
  GI50: 7.83 µM
[42]
  inhibition at 10 µM: 84.1%

## O=C(/C=C/c1c[nH]cn1)c1cccc(NCc2ccc(CO)cc2)c1 [Compound 5m, (E)-1–(3-((4-(hydroxymethyl)benzyl)amino)phenyl)-3-(1H-imidazol-4-yl)prop-2-en-1-one]
[1]
  inhibition at 10 µM: 22.2%
[2]
  inhibition at 10 µM: 2.28%
[3]
  inhibition at 10 µM: 66%
[4]
  inhibition at 10 µM: 45.6%
[5]
  inhibition at 10 µM: 13.9%
[6]
  inhibition at 10 µM: 9.93%
[7]
  inhibition at 10 µM: 24.9%
[8]
  inhibition at 10 µM: 36.5%
[9]
  inhibition at 10 µM: 8.35%
[10]
  inhibition at 10 µM: 11%
[11]
  inhibition at 10 µM: 21.5%
[12]
  inhibition at 10 µM: 92.9%
[13]
  inhibition at 10 µM: 34%
[14]
  inhibition at 10 µM: 89.4%
[15]
  inhibition at 10 µM: 5.3%
[16]
  inhibition at 10 µM: 6.04%
[17]
  inhibition at 10 µM: 58.6%
[18]
  inhibition at 10 µM: 6.83%
[19]
  inhibition at 10 µM: 38.3%
[20]
  inhibition at 10 µM: 14.1%
[21]
  inhibition at 10 µM: 16.6%
[22]
  inhibition at 10 µM: 8.96%
[23]
  inhibition at 10 µM: -1.46%
[25]
  inhibition at 10 µM: -0.68%
[26]
  inhibition at 10 µM: 23.1%
[27]; read-out: percent growth inhibition
  inhibition at 10 µM: 6.75%
[28]
  inhibition at 10 µM: 21.7%
[29]
  inhibition at 10 µM: 8.36%
[31]
  inhibition at 10 µM: 11.7%
[32]
  inhibition at 10 µM: 80.4%
[33]
  inhibition at 10 µM: 14.6%
[34]
  inhibition at 10 µM: 22%
[35]
  inhibition at 10 µM: 30.5%
[36]
  inhibition at 10 µM: 13%
[37]
  Full panel Mean GI %: 25.19%
[38]
  inhibition at 10 µM: 47.8%
[39]
  inhibition at 10 µM: -0.06%
[40]
  inhibition at 10 µM: 4.31%
[41]
  inhibition at 10 µM: 16.8%
[42]
  inhibition at 10 µM: 4.92%
